How the values were obtained:
[1] = tested on: human small cell lung carcinoma (NYH); assay: inhibition of tumour cell proliferation in vitro, NYH; type: cell-based
[2] = tested on: human breast cancer (MCF-7); assay: inhibition of tumour cell proliferation in vitro, MCF-7; type: cell-based; conditions: MCF7
Yoshida sarcoma cells [3] = assay: survival time of Yoshida tumour-bearing rats (LEW/Mol inbred female rats, oral); type: in vivo, rat; conditions: untreated 7.5 days
Protocol: The prolongation of survival time of tumour-bearing rats was studied in LEW/Mol inbred female rats inoculated with Yoshida sarcoma cells (identical to the cells described above) in a number of 2×10^7 cells. Tumour-bearing rats were dosed orally once daily from day 3 after the transfer of tumour cells and until death or until the body-weights had increased by 10% as a consequence of tumour proliferation. The time for death of 50% of the animals was calculated by linear regression analysis.

Yoshida sarcoma cells [4] = assay: inhibition of Yoshida sarcoma cell proliferation in vitro ([^3 H]thymidine incorporation, 24 h); type: cell-based; conditions: Rattus norvegicus, read-out: Inhibition of tumour cell proliferation IC50
Protocol: (§1) The inhibition of tumour cell proliferation was studied using Yoshida sarcoma cells, originally derived from rat hepatic tumours induced by the carcinogen o-aminoazotoluene. The cells were cultured in vitro for 24 hours in the presence of the compound under investigation. DNA synthesis was measured by incorporation of [^3 H]thymidine, and the median inhibitory concentrations (IC50) of the compounds were calculated. The cytotoxicity of the compounds in normal lymphocytes was assessed by the dye exclusion method and expressed as the concentrations resulting in 50% viability (VC50).

[5] = cytotoxicity in normal lymphocytes, dye exclusion method; type: cell-based; conditions: concentration resulting in 50% viability, read-out: Effect on viability of normal cells VC50
Protocol: as §1

[6] = tested on: human small cell lung carcinoma (NYH); assay: therapeutic antitumour effect in nude mice carrying a human small cell lung carcinoma (NYH); type: in vivo, human tumour in nude mice
Protocol: In addition the antitumour effect of the compounds of the present invention was determined in nude mice carrying a human small cell lung carcinoma (NYH).
Nude mice were inoculated subcutaneously with a 0.2 ml NYH cell suspension (5×10^7 cells/ml). Two weeks after inoculum animals were divided in treatment and control groups. All mice were dosed p.o. once daily according to group from day 14 to 28.

In the case of `N#CNC(=Nc1ccncc1)NCCCCCCCOc1ccccc1` [Example No. 33, N-Cyano-N'-(7-phenoxyheptyl)-N"-4-pyridylguanidine], the IC50 [1] is reported as 0.58 nM and the IC50 [2] is reported as 6.2 nM.
With `O=P1(N(CCCl)CCCl)NCCCO1` (stereo not drawn) [Cyclophosphamide, reference compound] the “Time to 50% of animals dead of cancer” value (Yoshida sarcoma cells [3]; 0.3 mg/kg p.o. once daily) was 19.1 days.
For `N#CN=C(NCCCCCOc1ccccc1)Nc1ccncc1` [Example No. 18, N-Cyano-N'-(5-phenoxypentyl)-N"-4-pyridylquanidine], the IC50 (Yoshida sarcoma cells [4]) was 750 nM, the CC50 [5] was greater than 100000 nM and the “Time to 50% of animals dead of cancer” value (Yoshida sarcoma cells [3]; 20 mg/kg p.o. once daily) was 11.0 days.
`N#CNC(=NCCCCCCOc1cc(Cl)c(Cl)cc1Cl)Nc1ccncc1` [Example No. 52, N-Cyano-N'-4-pyridyl-N"-(6-(2,4,5-trichlorophenoxy)hexyl)guanidine] gave an IC50 [1] of 1.4 nM and an IC50 [2] of 4.3 nM.
In the case of `N#CN=C(NCCCCCCOc1ccccc1Cl)Nc1ccncc1` [Example No. 54, N-(6-o-Chlorophenoxyhexyl)-N'-cyano-N"-4-pyridylquanidine], the IC50 [1] is reported as 0.59 nM and the IC50 [2] is reported as 1.4 nM.
With `N#CN=C(NCCCOc1ccccc1)Nc1ccncc1` [Example No. 5, N-Cyano-N'-(3-phenoxypropyl)-N"-4-pyridylquanidine] the IC50 (Yoshida sarcoma cells [4]) was 3300 nM, the CC50 [5] was greater than 100000 nM and the “Time to 50% of animals dead of cancer” value (Yoshida sarcoma cells [3]; 10 mg/kg p.o. once daily) was 12.0 days. For the same compound, the “Time to 50% of animals dead of cancer” value (Yoshida sarcoma cells [3]; 20 mg/kg p.o. once daily) was 15.5 days, the “Time to 50% of animals dead of cancer” value (Yoshida sarcoma cells [3]; 50 mg/kg p.o. once daily) was “a (No rats had died on day 14. Calculation of 50% dead not possible.)” and the “Time to 50% of animals dead of cancer” value (Yoshida sarcoma cells [3]; 100 mg/kg p.o. once daily) was “a (No rats had died on day 14. Calculation of 50% dead not possible.)”.
For `Sc1ncnc2nc[nH]c12` [6-Mercaptopurine, reference compound], the “Time to 50% of animals dead of cancer” value (Yoshida sarcoma cells [3]; 10 mg/kg p.o. once daily) was 12.2 days.
With `N#CN=C(NCCCCCCOc1ccc(Cl)cc1)Nc1ccncc1` [Example No. 43, N-(6-p-Chlorophenoxyhexyl)-N'-cyano-N"-4-pyridylquanidine] the IC50 [1] was 1.9 nM, the IC50 [2] was 21 nM and the “tumour areas (range)” value ([6]; 25 mg/kg p.o. once daily day 14 to 28, day 11 (before dosing)) was 12-36 mm^2. The “tumour areas (range)” value ([6]; 25 mg/kg p.o. once daily day 14 to 28, day 14) was 23-58 mm^2, the “tumour areas (range)” value ([6]; 25 mg/kg p.o. once daily day 14 to 28, day 18, p < 0.05 vs untreated or vehicle) was 12-59 mm^2 and the “tumour areas (range)” value ([6]; 25 mg/kg p.o. once daily day 14 to 28, day 21, p < 0.05 vs untreated or vehicle) was 11-18 mm^2. For the same compound, the “tumour areas (range)” value ([6]; 25 mg/kg p.o. once daily day 14 to 28, day 25, p < 0.05 vs untreated or vehicle) was 4-14 mm^2, the “tumour areas (range)” value ([6]; 25 mg/kg p.o. once daily day 14 to 28, day 28, p < 0.05 vs untreated or vehicle) was 0--0 mm^2 and the Number of tumours ([6]; 25 mg/kg p.o., day 11 (before dosing)) was 6. It also gave a Number of tumours ([6]; 25 mg/kg p.o., day 14) of 8, a Number of tumours ([6]; 25 mg/kg p.o., day 18) of 8 and a Number of tumours ([6]; 25 mg/kg p.o., day 21) of 5. For the same compound, the Number of tumours ([6]; 25 mg/kg p.o., day 25) was 3, the Number of tumours ([6]; 25 mg/kg p.o., day 28) was 0 and the “tumour areas (range)” value ([6]; 50 mg/kg p.o. once daily day 14 to 28, day 11 (before dosing)) was 17-64 mm^2. The “tumour areas (range)” value ([6]; 50 mg/kg p.o. once daily day 14 to 28, day 14) was 16-131 mm^2, the “tumour areas (range)” value ([6]; 50 mg/kg p.o. once daily day 14 to 28, day 18, p < 0.05 vs untreated or vehicle) was 8-109 mm^2 and the “tumour areas (range)” value ([6]; 50 mg/kg p.o. once daily day 14 to 28, day 21, p < 0.05 vs untreated or vehicle) was 6-40 mm^2. The “tumour areas (range)” value ([6]; 50 mg/kg p.o. once daily day 14 to 28, day 25, p < 0.05 vs untreated or vehicle) was 3-27 mm^2, the “tumour areas (range)” value ([6]; 50 mg/kg p.o. once daily day 14 to 28, day 28, p < 0.05 vs untreated or vehicle) was 0--0 mm^2 and the Number of tumours ([6]; 50 mg/kg p.o., day 11 (before dosing)) was 6. The Number of tumours ([6]; 50 mg/kg p.o., day 14) was 10, the Number of tumours ([6]; 50 mg/kg p.o., day 18) was 10 and the Number of tumours ([6]; 50 mg/kg p.o., day 21) was 5. The Number of tumours ([6]; 50 mg/kg p.o., day 25) was 5 and the Number of tumours ([6]; 50 mg/kg p.o., day 28) was 0.
Work on `COc1ccccc1OCCCCCCNC(=NC#N)Nc1ccncc1` [Example No. 53, N-Cyano-N'-(6-o-methoxyphenoxyhexyl)-N"-4-pyridylquanidine] yielded an IC50 [1] of 0.52 nM and an IC50 [2] of 0.74 nM.
With `N#CN=C(NCCCCOc1ccccc1)Nc1ccncc1` [Example No. 14, N-Cyano-N'-(4-phenoxybutyl)-N"-4-pyridylquanidine] the IC50 (Yoshida sarcoma cells [4]) was 170 nM, the CC50 [5] was 100000 nM and the “Time to 50% of animals dead of cancer” value (Yoshida sarcoma cells [3]; 20 mg/kg p.o. once daily) was 10.8 days.

Reference: patent publication US5696140A, “N-cyano-N'-pyridylguanidines as serotonin antagonists” (Leo Pharmaceutical Products Ltd., priority 1992, dated 1997)
